For one assay, the target named is T1, PTPN1 (i.e., PTP1B) (Homo sapiens, UniProt P18031).
T1 sequence (P18031 1-435): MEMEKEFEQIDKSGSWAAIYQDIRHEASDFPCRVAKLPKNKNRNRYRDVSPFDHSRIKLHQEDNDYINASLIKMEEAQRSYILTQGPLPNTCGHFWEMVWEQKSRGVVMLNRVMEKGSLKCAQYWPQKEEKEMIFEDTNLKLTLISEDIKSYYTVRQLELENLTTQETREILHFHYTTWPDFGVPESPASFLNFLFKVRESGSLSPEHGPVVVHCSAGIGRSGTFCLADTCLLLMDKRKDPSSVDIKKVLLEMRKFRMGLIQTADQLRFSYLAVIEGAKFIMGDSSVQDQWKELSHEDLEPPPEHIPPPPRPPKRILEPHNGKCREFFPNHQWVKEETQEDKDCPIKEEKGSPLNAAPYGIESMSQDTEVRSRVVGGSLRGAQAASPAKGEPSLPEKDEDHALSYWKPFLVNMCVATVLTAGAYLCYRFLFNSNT
Briefly: Phosphatase activity assay (DiFMUP substrate), PTP1B. The format is biochemical. Conditions: compounds binned ≤1 uM or >1 uM. Summed up:
(§1)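 Read-out is continuous fluorescence of DiFMU (360 nm excitation, 450 nm emission) over about 15-30 minutes, with DiFMUP substrate at the enzyme's independently determined Km (PTPN2 approx. 45 μM final). Buffer: 50 mM HEPES pH 7.5, 150 mM NaCl, 0.5 mM EDTA, 1 mM DTT, 0.001% Tween-20, room temperature; initial rates versus 10-point dilution fitted for IC50, at least duplicate.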

A further assay has as its target T2, PTPN2 (i.e., TC-PTP) (Homo sapiens, UniProt P17706).
T2 sequence (P17706 1-415): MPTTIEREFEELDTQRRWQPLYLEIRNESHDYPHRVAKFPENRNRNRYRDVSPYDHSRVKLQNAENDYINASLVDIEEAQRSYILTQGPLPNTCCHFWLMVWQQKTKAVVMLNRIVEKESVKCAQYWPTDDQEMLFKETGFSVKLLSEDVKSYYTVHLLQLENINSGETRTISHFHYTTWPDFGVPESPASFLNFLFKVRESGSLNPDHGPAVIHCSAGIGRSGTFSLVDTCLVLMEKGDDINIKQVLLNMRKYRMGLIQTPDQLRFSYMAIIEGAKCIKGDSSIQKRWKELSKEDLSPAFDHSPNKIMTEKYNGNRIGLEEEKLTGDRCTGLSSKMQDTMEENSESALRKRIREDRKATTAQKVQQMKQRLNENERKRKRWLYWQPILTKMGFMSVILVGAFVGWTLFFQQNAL
Put plainly: Phosphatase activity assay (DiFMUP substrate), PTPN2. The format is biochemical. Conditions: compounds binned ≤1 uM or >1 uM. Summed up: as §1

Here are results for 24 compounds from patent US20240398828A1, “HETERO-ATOM CONTAINING COMPOUNDS AND USES THEREOF” (Kumquat Biosciences Inc., priority 2021, published 2024).

As to `O=C1CN(c2c(O)ccc(-c3ccc(NS(=O)(=O)C4CC4)cn3)c2F)S(=O)(=O)N1` [Compound 261, N-(6-(3-(1,1-dioxido-4-oxo-1,2,5-thiadiazolidin-2-yl)-2-fluoro-4-hydroxyphenyl)pyridin-3-yl)cyclopropanesulfonamide], the IC50 on PTPN1 (i.e., PTP1B) was not above 1000 nM; at PTPN2 (i.e., TC-PTP), not above 1000 nM.
Consider `O=C1CN(c2c(O)ccc(-c3cn(-c4cc(F)cc(F)c4)cn3)c2F)S(=O)(=O)N1` [Compound 265, 5-(3-(1-(3,5-difluorophenyl)-1H-imidazol-4-yl)-2-fluoro-6-hydroxyphenyl)-1,2,5-thiadiazolidin-3-one 1,1-dioxide], for which the IC50 at PTPN1 (i.e., PTP1B) was not above 1000 nM; at PTPN2 (i.e., TC-PTP), not above 1000 nM.
For `O=C1CN(c2c(O)ccc(-c3cc(CC(F)F)n[nH]3)c2F)S(=O)(=O)N1` [Compound 524, 5-(3-(3-(2,2-difluoroethyl)-1H-pyrazol-5-yl)-2-fluoro-6-hydroxyphenyl)-1,2,5-thiadiazolidin-3-one 1,1-dioxide], the IC50 at PTPN1 (i.e., PTP1B) was not above 1000 nM; at PTPN2 (i.e., TC-PTP), not above 1000 nM.
Take `N#C[C@H]1CC[C@@H](n2cnc(-c3ccc(O)c(N4CC(=O)NS4(=O)=O)c3F)c2)CC1` [Compound 357, (1s,4s)-4-(4-(3-(1,1-dioxido-4-oxo-1,2,5-thiadiazolidin-2-yl)-2-fluoro-4-hydroxyphenyl)-1H-imidazol-1-yl)cyclohexane-1-carbonitrile]: the IC50 on PTPN1 (i.e., PTP1B) is not above 1000 nM; at PTPN2 (i.e., TC-PTP), not above 1000 nM.
For `CN(C)C1CC=C(c2ccc(O)c(N3CC(=O)NS3(=O)=O)c2F)C1` (stereo not drawn) [Compound 301, 5-(3-(4-(dimethylamino)cyclopent-1-en-1-yl)-2-fluoro-6-hydroxyphenyl)-1,2,5-thiadiazolidin-3-one 1,1-dioxide], the IC50 is not above 1000 nM on PTPN1 (i.e., PTP1B) and not above 1000 nM at PTPN2 (i.e., TC-PTP).
As for `CC(C)CCn1cnc(-c2ccc(O)c(N3CC(=O)NS3(=O)=O)c2F)c1` [Compound 216, 5-(2-fluoro-6-hydroxy-3-(1-isopentyl-1H-imidazol-4-yl)phenyl)-1,2,5-thiadiazolidin-3-one 1,1-dioxide], the IC50 was not above 1000 nM at PTPN1 (i.e., PTP1B) and not above 1000 nM at PTPN2 (i.e., TC-PTP).
With `O=C1CN(c2c(O)ccc(-c3cnn(CCC4CCCOC4)c3)c2F)S(=O)(=O)N1` (stereo not drawn) [Compound 154, 5-(2-fluoro-6-hydroxy-3-(1-(2-(tetrahydro-2H-pyran-3-yl)ethyl)-1H-pyrazol-4-yl)phenyl)-1,2,5-thiadiazolidin-3-one 1,1-dioxide], the IC50 on PTPN1 (i.e., PTP1B) is not above 1000 nM; on PTPN2 (i.e., TC-PTP), not above 1000 nM.
Take `CC(C)CNc1ccc(-c2ccc(O)c(N3CC(=O)NS3(=O)=O)c2F)cc1` [Compound 193, 5-(2-fluoro-4-hydroxy-4′-(isobutylamino)-[1,1′-biphenyl]-3-yl)-1,2,5-thiadiazolidin-3-one 1,1-dioxide]: the half-inhibitory concentration (IC50) is not above 1000 nM on PTPN1 (i.e., PTP1B) and not above 1000 nM at PTPN2 (i.e., TC-PTP).
With `Cn1cc(-c2ccc(O)c(N3CC(=O)NS3(=O)=O)c2F)nc1O` [Compound 527, 5-(2-fluoro-6-hydroxy-3-(2-hydroxy-1-methyl-1H-imidazol-4-yl)phenyl)-1,2,5-thiadiazolidin-3-one 1,1-dioxide], the IC50 is not above 1000 nM on PTPN1 (i.e., PTP1B) and not above 1000 nM at PTPN2 (i.e., TC-PTP).
`O=C1CN(c2c(O)ccc(-c3cnn(Cc4cncc(F)c4)c3)c2F)S(=O)(=O)N1` [Compound 111, 5-(2-fluoro-3-(1-((5-fluoropyridin-3-yl)methyl)-1H-pyrazol-4-yl)-6-hydroxyphenyl)-1,2,5-thiadiazolidin-3-one 1,1-dioxide]: the IC50 at PTPN1 (i.e., PTP1B) was not above 1000 nM; on PTPN2 (i.e., TC-PTP), not above 1000 nM.
Consider `COCCS(=O)(=O)Nc1ccc(-c2ccc(O)c(N3CC(=O)NS3(=O)=O)c2F)cc1` [Compound 443, N-(3′-(1,1-dioxido-4-oxo-1,2,5-thiadiazolidin-2-yl)-2′-fluoro-4′-hydroxy-[1,1′-biphenyl]-4-yl)-2-methoxyethane-1-sulfonamide], for which the IC50 at PTPN1 (i.e., PTP1B) was not above 1000 nM; on PTPN2 (i.e., TC-PTP), not above 1000 nM.
Regarding `Cn1nc(-c2ccc(O)c(N3CC(=O)NS3(=O)=O)c2F)cc1O` [Compound 479, 5-(2-fluoro-6-hydroxy-3-(5-hydroxy-1-methyl-1H-pyrazol-3-yl)phenyl)-1,2,5-thiadiazolidin-3-one 1,1-dioxide], the IC50 was not above 1000 nM on PTPN1 (i.e., PTP1B) and not above 1000 nM at PTPN2 (i.e., TC-PTP).
`O=C1CN(c2c(O)ccc(-c3cnn(C4CCC(F)(F)CC4)c3)c2F)S(=O)(=O)N1` [Compound 446, 5-(3-(1-(4,4-difluorocyclohexyl)-1H-pyrazol-4-yl)-2-fluoro-6-hydroxyphenyl)-1,2,5-thiadiazolidin-3-one 1,1-dioxide]: the IC50 is not above 1000 nM at PTPN1 (i.e., PTP1B) and not above 1000 nM at PTPN2 (i.e., TC-PTP).
`O=C1CN(c2c(O)ccc(C3=CC(=O)OC3)c2F)S(=O)(=O)N1` [Compound 513, 5-(2-fluoro-6-hydroxy-3-(5-oxo-2,5-dihydrofuran-3-yl)phenyl)-1,2,5-thiadiazolidin-3-one 1,1-dioxide]: the IC50 at PTPN1 (i.e., PTP1B) was not above 1000 nM; at PTPN2 (i.e., TC-PTP) it was not above 1000 nM.
For `Cc1cc(-c2ccc(O)c(N3CC(=O)NS3(=O)=O)c2F)nn1C` [Compound 454, 5-(3-(1,5-dimethyl-1H-pyrazol-3-yl)-2-fluoro-6-hydroxyphenyl)-1,2,5-thiadiazolidin-3-one 1,1-dioxide], the concentration for half-maximal inhibition (IC50) was not above 1000 nM at PTPN1 (i.e., PTP1B) and not above 1000 nM at PTPN2 (i.e., TC-PTP).
For the compound `O=C1CN(c2c(O)ccc(-c3cnn(Cc4ccc(C(F)(F)F)cc4)c3)c2F)S(=O)(=O)N1` [Compound 217, 5-(2-fluoro-6-hydroxy-3-(1-(4-(trifluoromethyl)benzyl)-1H-pyrazol-4-yl)phenyl)-1,2,5-thiadiazolidin-3-one 1,1-dioxide], the IC50 at PTPN1 (i.e., PTP1B) was not above 1000 nM; on PTPN2 (i.e., TC-PTP), not above 1000 nM.
Take `O=C1CN(c2c(O)ccc(-c3ccc(N4CCCC4)cc3)c2F)S(=O)(=O)N1` [Compound 117, 5-(2-fluoro-4-hydroxy-4′-(pyrrolidin-1-yl)-[1,1′-biphenyl]-3-yl)-1,2,5-thiadiazolidin-3-one 1,1-dioxide]: the IC50 on PTPN1 (i.e., PTP1B) is not above 1000 nM; on PTPN2 (i.e., TC-PTP) it was not above 1000 nM.
Regarding `O=C1CN(c2c(O)ccc(-c3cc(C4CC4)n(C(F)F)n3)c2F)S(=O)(=O)N1` [Compound 518, 5-(3-(5-cyclopropyl-1-(difluoromethyl)-1H-pyrazol-3-yl)-2-fluoro-6-hydroxyphenyl)-1,2,5-thiadiazolidin-3-one 1,1-dioxide], the IC50 is not above 1000 nM on PTPN1 (i.e., PTP1B) and not above 1000 nM at PTPN2 (i.e., TC-PTP).
With `Cc1csc(-c2ccc(O)c(N3CC(=O)NS3(=O)=O)c2F)c1` [Compound 103, 5-(2-fluoro-6-hydroxy-3-(4-methylthiophen-2-yl)phenyl)-1,2,5-thiadiazolidin-3-one 1,1-dioxide], the IC50 was not above 1000 nM at PTPN1 (i.e., PTP1B) and not above 1000 nM on PTPN2 (i.e., TC-PTP).
For the compound `O=C1CN(c2c(O)ccc(-c3cnn(C(=O)N4CC(F)(F)C4)c3)c2F)S(=O)(=O)N1` [Compound 505, 5-(3-(1-(3,3-difluoroazetidine-1-carbonyl)-1H-pyrazol-4-yl)-2-fluoro-6-hydroxyphenyl)-1,2,5-thiadiazolidin-3-one 1,1-dioxide], the IC50 at PTPN1 (i.e., PTP1B) was not above 1000 nM; at PTPN2 (i.e., TC-PTP), not above 1000 nM.
Regarding `O=C1CN(c2c(O)ccc(-c3cnn(C4CCCOCC4)c3)c2F)S(=O)(=O)N1` (stereo not drawn) [Compound 456, 5-(2-fluoro-6-hydroxy-3-(1-(oxepan-4-yl)-1H-pyrazol-4-yl)phenyl)-1,2,5-thiadiazolidin-3-one 1,1-dioxide], the IC50 on PTPN1 (i.e., PTP1B) is not above 1000 nM; at PTPN2 (i.e., TC-PTP), not above 1000 nM.
In the case of `O=C1CN(c2c(O)ccc(C3CCN(C4CC4)CC3)c2F)S(=O)(=O)N1` [Compound 353, 5-(3-(1-cyclopropylpiperidin-4-yl)-2-fluoro-6-hydroxyphenyl)-1,2,5-thiadiazolidin-3-one 1,1-dioxide], the IC50 at PTPN1 (i.e., PTP1B) is not above 1000 nM; on PTPN2 (i.e., TC-PTP), not above 1000 nM.
Consider `CCC1C=C(c2ccc(O)c(N3CC(=O)NS3(=O)=O)c2F)CNC1` (stereo not drawn) [Compound 497, 5-(3-(5-ethyl-1,2,5,6-tetrahydropyridin-3-yl)-2-fluoro-6-hydroxyphenyl)-1,2,5-thiadiazolidin-3-one 1,1-dioxide], for which the IC50 at PTPN1 (i.e., PTP1B) is not above 1000 nM; on PTPN2 (i.e., TC-PTP), not above 1000 nM.
For the compound `O=C1CN(c2c(O)ccc(-c3cn(C4CCC(F)CC4)cn3)c2F)S(=O)(=O)N1` (stereo not drawn) [Compound 306, 5-(2-fluoro-3-(1-(4-fluorocyclohexyl)-1H-imidazol-4-yl)-6-hydroxyphenyl)-1,2,5-thiadiazolidin-3-one 1,1-dioxide], the IC50 on PTPN1 (i.e., PTP1B) is not above 1000 nM; at PTPN2 (i.e., TC-PTP), not above 1000 nM.

Usually IC50 stands for the concentration needed to halve the response being measured.
